Test results reported in PMC10539501 (Nature Communications, 2023).
Starred links: 1 amine or outer side, 2 acyl side, 3 side chain; linkers in the order of their positions; H or OH if unused. Non-standard residues stand in square brackets, D forms with d. Residues, ends and D or L forms follow the SMILES beside them. X3 = CC(C)C[C@H](N[*:1])C(=S)N[C@H](CC(C)C)C(=O)[*:2]; X4 = CC(C)C[C@H](N[*:1])C(=S)N1CCC[C@@H]1C(=O)[*:2]; X16 = CC(C)C[C@H](N[*:1])C(=S)N[C@H](C)C(=O)[*:2]; NMeL = CN[C@@H](CC(C)C)C(=O)O

Tests used:
in vitro [1] = details: both, human, plasma
in vitro [2] = assay type: in vitro ADME, human
Procedure: (§1) The Caco-2 cell (HTB-37^TM from ATCC, procured from NCCS, Pune) monolayer was washed and pre-incubated at 37 °C and 5% CO2 for 30 min with HBSS-HEPES buffer containing 1% DMSO prior to experimentation. The assay was performed 21 days post-seeding of cells. TEER values were measured before starting and after the completion of the assay. Acceptor and donor well concentrations of the peptides and controls were assessed through LC-MS/MS.

Caco-2 cells = assay: in vitro; assay type: in vitro ADME, human; details: Caco-2
Procedure: as §1

[3] = PAMPA passive permeability; assay type: in vitro ADME;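 also: passive permeability across an artificial membrane in 96-well pre-coated PAMPA plates, which lack transporters and efflux systems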
Procedure: Encouraged by this, the passive permeability of the analogs was evaluated using an artificial membrane (PAMPA), which measures permeability of compounds in the absence of transporters and efflux systems[32].
96-well BD Corning® pre-coated PAMPA plates were used following the supplier’s protocol, details in Supplementary Information.

in vitro [4] = details: human, microsomes
Procedure: (§2) A stability assessment of the peptides was done in simulated gastric (SGF) and intestinal (SIF) fluids and human liver microsomes. The degradation kinetics of the aliquoted samples at desired time points were analyzed through RP-HPLC.

in vitro [5] = details: both, human, plasma; remark: listed apart in the source
Procedure: Blood was freshly drawn from three healthy adults, two male and one person of 26–28 year old. […] The plasma was separated by centrifugation. […] For checking metabolic stability, the required volume of plasma was pre-incubated at 37 °C prior to the experiment for 2 min, followed by spiking with the peptides. At different time points, plasma was aliquoted. The supernatant was separated and used for RP-HPLC quantification. Rapid Equilibrium Dialysis (RED) assay was performed to assess the plasma protein binding of the peptides following the supplier’s protocol.

in vitro [6] = details: pig, simulated intestinal fluid
Procedure: We next assessed the stability of the macrocyclic peptides in Simulated Intestinal Fluid (SIF)[42], comprising of pancreatin, which is a mixture of several proteases produced by the exocrine cells of the porcine pancreas.
as §2

pepsin = pepsin (Sus scrofa, UniProt P00791); assay: in vitro; details: simulated gastric fluid, pH 1.2
Procedure: as §2

physchem = details: pH 7.4
[7] = assay type: physicochemical
Source text: Since reduced solvation of S also contributes to the lipophilicity of the thioamidated peptides, we sought to estimate the global desolvation of the macrocyclic peptides, which is affected by solvation of both N(H) and C(S). […] Thus, we evaluated the desolvation potential of the cyclic peptides by determining the distribution coefficients in heptane-ethylene glycol (logDh/e), a solvent system that provides an experimental estimate of desolvation or hydrogen bond potential[38].

[8] = assay type: physicochemical; remark: listed apart in the source
in vivo = details: male, Wistar, rat
Procedure: (§3) All animals were housed individually in the animal facility at Anthem Biosciences Pvt. Ltd and were acclimatized for 3 days. All animals were fasted overnight before dosing, whereas access to water was provided ad libitum. Peptides were administered orally and via s.c. route and blood samples were collected at different time points through a jugular vein catheter.

[9] = rat, in vivo, po, 10 mg/kg
Procedure: as §3

[10] = Retention in hydrophobic C18 column by HPLC; details: Supplementary Fig 3d, logD7.4 vs tR
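For Papp A-B + Elacridar avg in this document: Caco-2 monolayers used 21 days after seeding in HBSS-HEPES buffer with 1% DMSO, donor and acceptor levels quantified by LC-MS/MS, TEER checked before and after.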
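For Papp A-B + Elacridar set 1 in this document: Caco-2 monolayers used 21 days after seeding in HBSS-HEPES buffer with 1% DMSO, donor and acceptor levels quantified by LC-MS/MS, TEER checked before and after.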
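For Papp A-B + Elacridar set 2 in this document: Caco-2 monolayers used 21 days after seeding in HBSS-HEPES buffer with 1% DMSO, donor and acceptor levels quantified by LC-MS/MS, TEER checked before and after.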
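For Papp A-B avg in this document: Caco-2 monolayers used 21 days after seeding in HBSS-HEPES buffer with 1% DMSO, donor and acceptor levels quantified by LC-MS/MS, TEER checked before and after.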

pepsin, sequence (P00791 60-385): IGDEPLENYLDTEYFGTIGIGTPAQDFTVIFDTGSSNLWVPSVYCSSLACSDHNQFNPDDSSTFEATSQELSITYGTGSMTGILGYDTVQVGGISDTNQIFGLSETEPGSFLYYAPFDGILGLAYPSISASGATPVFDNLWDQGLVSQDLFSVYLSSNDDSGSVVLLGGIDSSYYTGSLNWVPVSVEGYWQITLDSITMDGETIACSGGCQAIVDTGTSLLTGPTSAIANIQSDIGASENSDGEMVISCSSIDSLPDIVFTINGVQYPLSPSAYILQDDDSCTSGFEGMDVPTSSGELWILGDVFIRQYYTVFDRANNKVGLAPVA
Procedure for human liver microsomes: as §2

CC(C)C[C@@H]1NC(=O)[C@H](Cc2ccc(O)cc2)NC(=O)[C@H]2CCCN2C(=S)[C@H](CC(C)C)NC(=O)[C@H](CC(C)C)NC(=O)[C@@H](CC(C)C)NC1=O [10c] (cyclo(L[dL]L[X4]Y))
half-life (in vitro [1]): 21 h | remaining at 1 h (in vitro [1]): 87% | remaining at 3 h (in vitro [1]): 83% | remaining at 5 h (in vitro [1]): 78% | remaining at 7 h (in vitro [1]): 75% | remaining at 9 h (in vitro [1]): 64% | remaining at 12 h (in vitro [1]): 60% | remaining at 24 h (in vitro [1]): 44% | remaining at 36 h (in vitro [1]): 34% | remaining at 48 h (in vitro [1]): 26% | remaining at 60 h (in vitro [1]): 10% | remaining at 72 h (in vitro [1]): 12% | Papp B→A (in vitro [2]; Caco-2, Papp B-A + Elacridar avg): 0.6 ×10⁻⁶ cm/s | Papp B→A (in vitro [2]; Caco-2, Papp B-A avg): 5.26 ×10⁻⁶ cm/s | Papp A-B + Elacridar avg (Caco-2 cells): 0 ×10⁻⁶ cm/s | Papp A-B + Elacridar set 1 (Caco-2 cells): 0 ×10⁻⁶ cm/s | Papp A-B + Elacridar set 2 (Caco-2 cells): 0 ×10⁻⁶ cm/s | Papp A-B avg (Caco-2 cells): 0 cm/s | Papp A-B avg (second block) (Caco-2 cells): 0.00 cm/s | Papp A-B set 1 (Caco-2 cells): 0 cm/s | Papp A-B set 1 (second block) (Caco-2 cells): 0.00 cm/s | Papp A-B set 2 (Caco-2 cells): 0 cm/s | Papp A-B set 2 (second block) (Caco-2 cells): 0.00 cm/s | Papp AB+Elacridar (PAMPA Caco2 correlation) (Caco-2 cells): 0 ×10⁻⁶ cm/s | Papp B-A avg (second block) (Caco-2 cells): 5.3 ×10⁻⁶ cm/s | Papp B-A set 1 (second block) (Caco-2 cells): 4.5 ×10⁻⁶ cm/s | Papp B-A set 2 (second block) (Caco-2 cells): 6.1 ×10⁻⁶ cm/s | Pe Avg [3]: 3.1 ×10⁻⁶ cm/s | Pe set1 [3]: 2.92 ×10⁻⁶ cm/s | Pe set2 [3]: 3.69 ×10⁻⁶ cm/s | Pe set3 [3]: 2.79 ×10⁻⁶ cm/s | Papp ([3]; Pe Avg): 3.1 ×10⁻⁶ cm/s | microsomal CLint (in vitro [4]): 106 µL/min/mg | remaining at 5 min (in vitro [4]): 76% | remaining at 10 min (in vitro [4]): 56% | remaining at 20 min (in vitro [4]): 45% | remaining at 0.5 h (in vitro [4]): 35% | remaining at 0.75 h (in vitro [4]): 16% | remaining at 1 h (in vitro [4]): 17% | fraction unbound (in vitro [5]): 0.24 | half-life (in vitro [6]): 0.567 h | remaining at 10 min (in vitro [6]): 70% | remaining at 0.5 h (in vitro [6]): 50.7% | remaining at 1 h (in vitro [6]): 46.6% | remaining at 2 h (in vitro [6]): 38.4% | remaining at 4 h (in vitro [6]): 29.3% | remaining at 8 h (in vitro [6]): 26.2% | remaining at 12 h (in vitro [6]): 20.6% | remaining at 24 h (in vitro [6]): 12.8% | half-life (pepsin): 0.333 h | remaining at 5 min (pepsin): 76% | remaining at 10 min (pepsin): 68% | remaining at 20 min (pepsin): 50% | remaining at 0.5 h (pepsin): 41% | remaining at 1 h (pepsin): 31% | remaining at 2 h (pepsin): 26% | remaining at 4 h (pepsin): 19% | remaining at 8 h (pepsin): 12% | remaining at 12 h (pepsin): 5% | remaining at 24 h (pepsin): 0% | logD (physchem): 1.27 | Half lives (human liver microsomes): 13.8 | logD heptane ethylene glycol [7]: 0.72 | % solubility [8]: 69%

CC(C)C[C@@H]1NC(=O)[C@@H](CC(C)C)NC(=O)[C@H](CC(C)C)N(C)C(=O)[C@H](Cc2ccc(O)cc2)NC(=O)[C@H]2CCCN2C(=O)[C@H](CC(C)C)NC1=O [10k] (cyclo(LL[dP]Y[NMeL][dL]))
half-life (in vitro [1]): 12 h | remaining at 2 h (in vitro [1]): 82% | remaining at 4 h (in vitro [1]): 69% | remaining at 8 h (in vitro [1]): 57% | remaining at 16 h (in vitro [1]): 39% | remaining at 24 h (in vitro [1]): 28% | remaining at 48 h (in vitro [1]): 8% | remaining at 72 h (in vitro [1]): 2.65% | Papp ([3]; Pe Avg): 6.13 ×10⁻⁶ cm/s | microsomal CLint (in vitro [4]): 144 µL/min/mg | remaining at 2 min (in vitro [4]): 67% | remaining at 10 min (in vitro [4]): 50% | remaining at 20 min (in vitro [4]): 28% | remaining at 0.5 h (in vitro [4]): 16% | remaining at 0.75 h (in vitro [4]): 4.69% | remaining at 1 h (in vitro [4]): 5.45% | fraction unbound (in vitro [5]): 0.53 | half-life (in vitro [6]): 1.55 h | remaining at 10 min (in vitro [6]): 88% | remaining at 0.5 h (in vitro [6]): 75% | remaining at 1 h (in vitro [6]): 62% | remaining at 2 h (in vitro [6]): 39% | remaining at 4 h (in vitro [6]): 30% | remaining at 8 h (in vitro [6]): 6% | remaining at 12 h (in vitro [6]): 3% | half-life (pepsin): 1.75 h | remaining at 2 min (pepsin): 97% | remaining at 10 min (pepsin): 84% | remaining at 20 min (pepsin): 77% | remaining at 0.5 h (pepsin): 71% | remaining at 1 h (pepsin): 65% | remaining at 2 h (pepsin): 46% | remaining at 4 h (pepsin): 19% | remaining at 8 h (pepsin): 11% | remaining at 12 h (pepsin): 7% | AUC(0-t) (in vivo; iv): 510 ng·h/mL | Cmax (in vivo; iv): 1170 ng/mL | MRT (in vivo; iv): 0.4 h | Vd (in vivo; iv): 0.8 L/kg | clearance (in vivo; iv): 33.3 mL/min/kg | bioavailability (in vivo; po): 6.8% | AUC(0-t) (in vivo; po, 10 mg/kg): 345 ng·h/mL | Cmax (in vivo; po, 10 mg/kg): 55.9 ng/mL | MRT (in vivo; po, 10 mg/kg): 9 h | level at 3 h (in vivo; po, 10 mg/kg): 26.6 ng/mL | Fold Change of AUClast p.o [9]: 393 | logD (physchem): 1.2 | Half lives (human liver microsomes): 10.3

CC(C)C[C@@H]1NC(=O)[C@@H](CC(C)C)NC(=O)[C@H]2CCCN2C(=S)[C@H](CC(C)C)NC(=O)[C@@H](CC(C)C)NC(=O)[C@H](CC(C)C)NC(=O)[C@@H]2CCCN2C(=O)[C@@H](C)NC1=O [12b] (cyclo(L[dL][X4][dL]L[dA]P))
Papp ([3]; Pe Avg): 2.6 ×10⁻⁶ cm/s | tR [10]: 15.5 min | logD (physchem): 1.61 | % solubility [8]: 49%

CC(C)C[C@@H]1NC(=O)[C@@H]2CCCN2C(=O)[C@@H](C)NC(=S)[C@H](CC(C)C)NC(=O)[C@@H](CC(C)C)NC(=O)[C@H]2CCCN2C(=O)[C@H](CC(C)C)NC(=O)[C@@H](CC(C)C)NC1=O [12e] (cyclo([dL]L[dP][dL][X16]PL))
Papp ([3]; Pe Avg): 5.7 ×10⁻⁶ cm/s | tR [10]: 15 min | logD (physchem): 1.37 | % solubility [8]: 41%

CC(C)C[C@@H]1NC(=O)[C@@H](CC(C)C)NC(=O)[C@H]2CCCN2C(=O)[C@H](CC(C)C)NC(=O)[C@@H](CC(C)C)NC(=S)[C@H](CC(C)C)NC(=O)[C@@H]2CCCN2C(=O)[C@@H](C)NC1=O [12h] (cyclo([X3]L[dP][dL]L[dA]P))
Papp ([3]; Pe Avg): 7.7 ×10⁻⁶ cm/s | tR [10]: 16.4 min | logD (physchem): 1.49 | % solubility [8]: 40%

CC[C@H](C)[C@@H]1NC(=O)[C@@H]2CCCN2C(=O)[C@H]([C@@H](C)CC)NC(=O)[C@@H]2CCCN2C(=O)[C@H](Cc2ccccc2)NC(=O)[C@H](C)NC(=O)[C@H](C)NC1=O [compound 11, cyclo(-Ile^1-Ala-Ala-Phe-Pro-Ile-Pro^7-)] (cyclo(AAFPIPI))
Papp ([3]; Pe (PAMPA vs logD7.4)): 0.41 ×10⁻⁶ cm/s | Papp ([3]; Pe Avg): 0.4 ×10⁻⁶ cm/s | tR [10]: 5.299 min | logD (physchem): 0.1 | % solubility [8]: 95%

CC(C)C[C@@H]1NC(=O)[C@@H](CC(C)C)NC(=O)[C@H]2CCCN2C(=O)[C@H](CC(C)C)NC(=O)[C@@H](CC(C)C)NC(=O)[C@H](CC(C)C)NC(=O)[C@@H]2CCCN2C(=O)[C@@H](C)NC1=O [compound 12, cyclo(-D-Leu^1-Leu-D-Pro-D-Leu-Leu-D-Ala-Pro-Leu^8-)] (cyclo(L[dA]PL[dL]L[dP][dL]))
Papp ([3]; Pe Avg): 3 ×10⁻⁶ cm/s | tR [10]: 12.6 min | logD (physchem): 0.75 | % solubility [8]: 94%
